Read-outs that look alike come from different tables or passages of the source.
Assays:
[1] = tested on: E. coli JMI 3328
Description: (§1) Synergy studies were performed by using polymyxin derivatives in combination with rifampin, a model compound for such antibacterial agents that the intact outer membrane of Gram-negative bacteria acts as a permeability barrier.

[2] = tested on: A. baumannii JMI 48125
Description: as §1

[3] = tested on: E. coli ATCC 25922
Description: as §1

[4] = tested on: K. pneumoniae JMI 27072
Description: as §1

[5] = tested on: P. aeruginosa ATCC 27853
Description: as §1

[6] = tested on: A. baumannii ATCC 19606
Description: as §1

[7] = tested on: K. pneumoniae ATCC 43816
Description: as §1

[8] = tested on: P. aeruginosa JMI 7445
Description: as §1

[9] = dogs; cited from earlier work
[10] = tested on: E. coli JMI 109; assay: MIC assay (CLSI broth microdilution; checkerboard with rifampin); type: cell-based, Escherichia coli; settings: in combination with rifampin (0.25 µg/mL), duplicate checkerboard assays; polymyxin-nonsusceptible strain
Description: as §1

[11] = rats; cited from earlier work
[12] = monkeys; cited from earlier work
[13] = patients, in selected materials; cited from earlier work
[14] = tested on: Escherichia coli C175-94; assay: Murine urinary infection efficacy study; type: in vivo
Description: The study used 64 outbred, OF-1 female mice (Charles River, France) weighing 28 -32 grams and Escherichia coli C175-94 (serotype O8:K48:H4), a clinical isolate elaborating type 1fimbriae. The peptides were NAB815 (Lot 1054308) and polymyxin B (Sigma-Aldrich, batch BCBF8382V). The study was performed by Statens Serum Institut, Copenhagen, Denmark.
Three days before the start of the study and during the study, the mice had free access to 5% glucose as drinking water.
On day 0, the urine was removed from the bladder by gently pressing the abdomen, Thereafter, the mouse was anaesthetized with approximately 0.15 ml of Zoletil mix s.c. A syringe with polyethylene catheter (Becton Dickison) containing the bacterial suspension was inserted via the urethra into the bladder and 50 µl of the bacterial inoculum was slowly injected into the bladder. Hereafter, the mouse was left in the cage. Mice were kept in a warming cabinet and were under surveillance until fully awake.
After measuring the colony forming units (CFUs), the inoculum was determined to contain 9.38 log10 CFU/ml, corresponding to 8.08 log10 CFU/mouse.
On day 1 and on day 2 postinfection, the mice were treated subcutaneously with solutions (0.2 ml) containing NAB815, polymyxin B or vehicle (0.9% NaCl) twice a day. The treatment groups (six mice in each) were the following: vehicle control; NAB815, 0.25 mg/kg/dose; NAB815, 0.5 mg/kg/dose; NAB815, 1 mg/kg/dose; NAB815, 2 mg/kg/dose; polymyxin B, 0.25 mg/kg/dose; polymyxin B, 0.5 mg/kg/dose; polymyxin B, 1 mg/kg/dose; and polymyxin B, 2 mg/kg/dose. In addition, one group served as a pretreatment control to help to assess as how the infection has proceeded before the start of the treatment on day 1 postinfection.
On days 1, 2 and 3 postinfection urine was sampled for colony counts. On day 1 postinfection (pretreatment control group) and on day 3 postinfection (all the other groups) after the urine sample was taken, mice were sacrificed by cervical dislocation and bladder and kidneys were removed aseptically. The bladder and kidneys were stored at -80 °C and later homogenized in 0.5 and 1 ml saline, respectively.
CFUs in urine were determined immediately within 2-3 hours after sampling. Frozen organs were thawed and homogenized with steel beads on a tissue lyser. All samples, urine, kidney and bladder, were 10 fold diluted in saline and 20-µl spots were applied on blood agar plates in duplicates. In addition, undiluted samples of urine (2-100 µl depending on the amount of urine) were spread on a separate agar plate to determine the lowest possible detection level of the colony counts. All agar plates were incubated 18-22 h at 35 °C in ambient air.

[15] = alone, Müller-Hinton II broth, 35°C, 20 hours
[16] = in combination with rifampin (0.25 µg/mL), duplicate checkerboard assays
[17] = of all the 24 mice treated at 0.25-2 mg/kg/dose

Polymyxin B
MIC [1, 15]: 2 µg/mL
MIC [1, 16]: 0.5 to 1 µg/mL
MIC [2, 15]: 2 µg/mL
MIC [2, 16]: 1 µg/mL
MIC [3, 15]: 2 µg/mL
MIC [3, 16]: 0.5 to 1 µg/mL
MIC [4, 15]: 2 µg/mL
MIC [4, 16]: 1 µg/mL
MIC [5, 15]: 2 µg/mL
MIC [5, 16]: 1 µg/mL
MIC [6, 15]: 2 µg/mL
MIC [6, 16]: 0.5 µg/mL
MIC [7, 15]: 2 µg/mL
MIC [7, 16]: 0.5 to 1 µg/mL
MIC [8, 15]: 2 µg/mL
MIC [8, 16]: 1 µg/mL
S-Crea and BUN response [9]: elicited a rapid onset of S-Crea and BUN response
MIC [10]: 0.5 to 1 µg/mL
S-Crea and BUN response [11]: lack of response
S-Crea and BUN response [12]: elicited a rapid onset of S-Crea and BUN response
nephrotoxicity rate [13]: ≤ 55%
dose-response in the CFUs in the bladder and in the kidneys ([14]; mice, 0.25-2 mg/kg/dose subcutaneously twice a day): did not show any dose-response tendency
CFU levels in urine, day 3 versus pretreatment control group on day 1 postinfection ([14]; mice, any dose group (0.25, 0.5, 1, 2 mg/kg/dose) subcutaneously twice a day): no significant differences
number of mice with bacterial levels below the detection limit in the kidneys [14, 17]: 10
number of mice with bacterial levels below the detection limit in the urine [14, 17]: 1
